Experimental findings from patent US20240116985A1, “STAPLED PEPTIDES AND METHODS THEREOF” (priority 2020, published 2024) are described below.

The Solubility is how much of the substance goes into solution per volume. Higher therefore signals much dissolved substance. By chromatographic logD is commonly meant a lipophilicity value derived from retention on a column. Low readings indicate a more hydrophilic compound, high ones a more lipophilic compound.

One series can be described thus: CHI Log D procedure. Format: physicochemical. As to conditions: for CHI Log D: pH 7.4; for chromatographic logD: pH 7.4, CHI Log D.
The nature of another series: Solubility in PBS. The format is physicochemical. In a few lines: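 The PBS solution was ultracentrifuged and the supernatant analyzed by HPLC. Its peak area was divided by that of a 50 μM peptide DMSO reference injection and multiplied by 50 uM to give solubility.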
In series [1] the target is T1, full-length beta-Catenin (Uniprot ID P35222) (Homo sapiens, UniProt P35222).
T1 construct: 10 nM full-length beta-Catenin (Uniprot ID P35222)
T1 sequence (P35222 1-781): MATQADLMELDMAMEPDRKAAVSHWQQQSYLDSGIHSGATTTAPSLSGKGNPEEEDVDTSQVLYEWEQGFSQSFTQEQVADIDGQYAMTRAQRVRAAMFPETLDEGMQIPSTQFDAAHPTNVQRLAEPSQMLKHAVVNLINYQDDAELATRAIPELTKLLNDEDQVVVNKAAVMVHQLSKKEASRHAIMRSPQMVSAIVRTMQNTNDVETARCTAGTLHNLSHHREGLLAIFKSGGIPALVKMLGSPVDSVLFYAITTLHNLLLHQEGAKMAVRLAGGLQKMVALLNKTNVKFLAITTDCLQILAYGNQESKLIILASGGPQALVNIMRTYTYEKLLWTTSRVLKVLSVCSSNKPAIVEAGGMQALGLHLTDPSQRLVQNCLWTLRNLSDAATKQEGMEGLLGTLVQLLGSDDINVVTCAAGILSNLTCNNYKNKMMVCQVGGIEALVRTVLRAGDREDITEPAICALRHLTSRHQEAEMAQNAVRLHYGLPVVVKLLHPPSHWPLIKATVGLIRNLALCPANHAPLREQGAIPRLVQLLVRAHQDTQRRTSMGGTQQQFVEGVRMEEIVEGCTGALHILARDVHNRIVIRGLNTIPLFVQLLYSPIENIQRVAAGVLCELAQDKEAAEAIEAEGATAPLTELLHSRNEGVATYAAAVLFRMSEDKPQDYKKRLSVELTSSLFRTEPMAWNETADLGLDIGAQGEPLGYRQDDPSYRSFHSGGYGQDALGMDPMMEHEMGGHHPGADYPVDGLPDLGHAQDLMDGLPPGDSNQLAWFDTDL
As to the kind of experiment: Fluorescence polarization IC50 (beta-catenin / 5FAM-TCF4 10-53 competition). Format: binding. Background: Fluorescence polarisation rises when a labelled molecule tumbles more slowly, as on binding a larger partner.

Setting [2] is: fluorescence polarization, read-out: beta-Catenin FP IC50.

Converted amounts (≈) assume the structure as drawn. Like-named read-outs stand apart in the source and are kept apart here.

As for `CC[C@@H](C)[C@@H]1NC(=O)[C@H](CC(=O)O)NC(=O)[C@]2(CC=CCCCC3(CCCC=CCCCCCC[C@@](C)(C(=O)N[C@@H](Cc4ccccc4)C(=O)N[C@@H](Cc4csc5ccccc45)C(=O)N[C@@H](CCC(N)=O)C(N)=O)NC(=O)[C@H](CC(N)=O)NC(=O)[C@H](Cc4ccccc4)NC(=O)[C@H](C)NC(=O)[C@H](C)NC(=O)[C@H](CCC(=O)O)NC(=O)[C@H](CC(=O)O)NC3=O)NC1=O)CCCN2C(C)=O` (stereo partly drawn) [I-475, Ac-PL3-Asp-aIle-B5-Asp-Glu-Ala-Ala-Phe-Asn-S8-Phe-BztA-Gln-NH2], in “CHI Log D procedure”, the “CHI Log D” value was found to be 2.277. Besides, the “Solubility” value in “Solubility in PBS” came out at 43 µM (≈ 80.4 µg/mL). Moreover, the IC50 in series [1] (setting [2]) and in series [1] (read-out: FP EC50) was 102 nM throughout.

On to `CC[C@@H](C)[C@@H]1NC(=O)[C@H](CC(=O)O)NC(=O)[C@]2(CC=CCCCC3(CCCC=CCCCCCC[C@@](C)(C(=O)N[C@@H](Cc4ccccc4)C(=O)N[C@@H](Cc4csc5ccccc45)C(=O)N[C@@H](CCC(N)=O)C(N)=O)NC(=O)[C@H](CC(N)=O)NC(=O)[C@H](Cc4ccccc4)NC(=O)[C@H](C)NC(=O)[C@H](C)NC(=O)[C@H](CCC(=O)O)NC(=O)[C@H](CC(=O)O)NC3=O)NC1=O)CCCN2C(C)=O` (stereo partly drawn) [I-476, Ac-PL3-Asp-aIle-B5-Asp-Glu-Ala-Ala-Phe-Asn-S8-Phe-BztA-Gln-NH2], for which the “CHI Log D” value in “CHI Log D procedure” is 2.317. The “Solubility” value in “Solubility in PBS” was found to be 49 µM (≈ 91.6 µg/mL). Besides, the IC50 in series [1] (setting [2]) and in series [1] (read-out: FP EC50) was 48 nM throughout.

`CC(=O)N1CCC[C@]12CC=CCCCC1(CCCC=CCCCCCC[C@@](C)(C(=O)N[C@@H](Cc3ccccc3)C(=O)N[C@@H](Cc3csc4ccccc34)C(=O)N[C@@H](CCC(N)=O)C(N)=O)NC(=O)[C@H](CCC(N)=O)NC(=O)[C@H](Cc3ccccc3)NC(=O)[C@H](C)NC(=O)[C@H](C)NC(=O)[C@H](CCC(=O)O)NC(=O)[C@H](CC(=O)O)NC1=O)NC(=O)[C@H]([C@@H](C)O)NC(=O)[C@H](CC(=O)O)NC2=O` (stereo partly drawn) [I-477, Ac-PL3-Asp-Thr-B5-Asp-Glu-Ala-Ala-Phe-Gln-S8-Phe-BztA-Gln-NH2] showed a chromatographic logD in the series “CHI Log D procedure” of 2. Further, the Solubility in “Solubility in PBS” (Solubility (uM)) came to 49 µM (≈ 91.7 µg/mL). In addition, in series [1] (setting [2]), the IC50 worked out at 119 nM.

For `CC(=O)N1CCC[C@]12CC=CCCCC1(CCCC=CCCCCCC[C@@](C)(C(=O)N[C@@H](Cc3ccccc3)C(=O)N[C@@H](Cc3csc4ccccc34)C(=O)N[C@@H](Cc3cn(C)cn3)C(N)=O)NC(=O)[C@H](CC(N)=O)NC(=O)[C@H](Cc3ccccc3)NC(=O)[C@H](C)NC(=O)[C@H](C)NC(=O)[C@H](CCC(=O)O)NC(=O)[C@H](CC(=O)O)NC1=O)NC(=O)[C@H](C)NC(=O)[C@H](CC(=O)O)NC2=O` (stereo partly drawn) [I-478, Ac-PL3-Asp-Ala-B5-Asp-Glu-Ala-Ala-Phe-Asn-S8-Phe-BztA-1MeH-NH2], the “CHI Log D” value in the series “CHI Log D procedure” is given as 2.052. Also, the “Solubility” value in “Solubility in PBS” was found to be 42 µM (≈ 77.7 µg/mL). For the same molecule, the IC50 in series [1] (setting [2]) and in series [1] (read-out: FP EC50) was 71 nM each time.

Regarding `CC(=O)N1CCC[C@]12CC=CCCCC1(CCCC=CCCCCCC[C@@](C)(C(=O)N[C@@H](Cc3ccccc3)C(=O)N[C@@H](Cc3csc4ccccc34)C(=O)N[C@@H](Cc3cn(C)cn3)C(N)=O)NC(=O)[C@H](CC(N)=O)NC(=O)[C@H](Cc3ccccc3)NC(=O)[C@H](C)NC(=O)[C@H](C)NC(=O)[C@H](CCC(=O)O)NC(=O)[C@H](CC(=O)O)NC1=O)NC(=O)[C@H](C)NC(=O)[C@H](CC(=O)O)NC2=O` (stereo partly drawn) [I-479, Ac-PL3-Asp-Ala-B5-Asp-Glu-Ala-Ala-Phe-Asn-S8-Phe-BztA-1MeH-NH2], in the series “CHI Log D procedure”, the “CHI Log D” value is 2.094. In the series “Solubility in PBS”, the “Solubility” value came to 38 µM (≈ 70.3 µg/mL). For the same molecule, the IC50 in series [1] (setting [2]) and in series [1] (read-out: FP EC50) was 27 nM throughout.

Take `CC(=O)N1CCC[C@]12CC=CCCCC1(CCCC=CCCCCCC[C@@](C)(C(=O)N[C@@H](Cc3ccccc3)C(=O)N[C@@H](Cc3csc4ccccc34)C(=O)N[C@@H](CCC(N)=O)C(N)=O)NC(=O)[C@H](CCC(N)=O)NC(=O)[C@H](Cc3cccs3)NC(=O)[C@H](C)NC(=O)[C@H](C)NC(=O)[C@H](CCC(=O)O)NC(=O)[C@H](CC(=O)O)NC1=O)NC(=O)[C@H](C)NC(=O)[C@H](CC(=O)O)NC2=O` (stereo partly drawn) [I-486, Ac-PL3-Asp-Ala-B5-Asp-Glu-Ala-Ala-2Thi-Gln-S8-Phe-BztA-Gln-NH2]: in the series “CHI Log D procedure”, the “CHI Log D” value is given as 1.97. Further, in the series “Solubility in PBS”, the “Solubility” value was 50 µM (≈ 92.4 µg/mL). Also, the IC50 in series [1] (setting [2]) and in series [1] (read-out: FP EC50) was 147 nM throughout.

On to `CC(=O)N1CCC[C@]12CC=CCCCC1(CCCC=CCCCCCC[C@@](C)(C(=O)N[C@@H](Cc3ccccc3)C(=O)N[C@@H](Cc3csc4ccccc34)C(=O)N[C@@H](CCC(N)=O)C(N)=O)NC(=O)[C@H](CCC(N)=O)NC(=O)[C@H](Cc3cccs3)NC(=O)[C@H](C)NC(=O)[C@H](C)NC(=O)[C@H](CCC(=O)O)NC(=O)[C@H](CC(=O)O)NC1=O)NC(=O)[C@H](C)NC(=O)[C@H](CC(=O)O)NC2=O` (stereo partly drawn) [I-487, Ac-PL3-Asp-Ala-B5-Asp-Glu-Ala-Ala-2Thi-Gln-S8-Phe-BztA-Gln-NH2], for which the “CHI Log D” value in “CHI Log D procedure” is 1.99. Besides, the “Solubility” value in the series “Solubility in PBS” stood at 44 µM (≈ 81.3 µg/mL). Moreover, the IC50 in series [1] (setting [2]) and in series [1] (read-out: FP EC50) was 45 nM in each case.

In the case of `CC[C@H](C)[C@@H]1NC(=O)[C@H](CC(=O)O)NC(=O)[C@]2(CC=CCCCC3(CCCC=CCCCCCC[C@@](C)(C(=O)N[C@@H](Cc4ccccc4)C(=O)N[C@@H](Cc4csc5ccccc45)C(=O)N[C@@H](Cc4c[nH]cn4)C(N)=O)NC(=O)[C@H](CCC(N)=O)NC(=O)[C@H](Cc4cccs4)NC(=O)[C@H](C)NC(=O)[C@H](C)NC(=O)[C@H](CCC(=O)O)NC(=O)[C@H](CC(=O)O)NC3=O)NC1=O)CCCN2C(C)=O` (stereo partly drawn) [I-488, Ac-PL3-Asp-Ile-B5-Asp-Glu-Ala-Ala-2Thi-Gln-S8-Phe-BztA-His-NH2], in “CHI Log D procedure”, the chromatographic logD was 2.4. The molecule further displayed a Solubility in “Solubility in PBS” (Solubility (uM)) of 30 µM (≈ 56.9 µg/mL). For the same molecule, the IC50 in series [1] (setting [2]) is 43 nM.

Regarding `CC[C@H](C)[C@@H]1NC(=O)[C@H](CC(=O)O)NC(=O)[C@]2(CC=CCCCC3(CCCC=CCCCCCC[C@@](C)(C(=O)N[C@@H](Cc4ccccc4)C(=O)N[C@@H](Cc4csc5ccccc45)C(=O)N[C@@H](Cc4c[nH]cn4)C(N)=O)NC(=O)[C@H](CCC(N)=O)NC(=O)[C@H](Cc4cccs4)NC(=O)[C@H](C)NC(=O)[C@H](C)NC(=O)[C@H](CC(=O)O)NC(=O)[C@H](CC(=O)O)NC3=O)NC1=O)CCCN2C(C)=O` (stereo partly drawn) [I-489, Ac-PL3-Asp-Ile-B5-Asp-Asp-Ala-Ala-2Thi-Gln-S8-Phe-BztA-His-NH2], the chromatographic logD in “CHI Log D procedure” came to 2.34. Also, the Solubility in “Solubility in PBS” (Solubility (uM)) is 36 µM (≈ 67.8 µg/mL). Further, the IC50 in series [1] (setting [2]) was determined as 57 nM.

In the series “CHI Log D procedure”, `CC(=O)N1CCC[C@]12CC=CCCCC1(CCCC=CCCCCCC[C@@](C)(C(=O)N[C@@H](Cc3ccccc3)C(=O)N[C@@H](Cc3csc4ccccc34)C(=O)N[C@@H](Cc3ccco3)C(N)=O)NC(=O)[C@H](CCC(N)=O)NC(=O)[C@H](Cc3ccccc3)NC(=O)[C@H](C)NC(=O)[C@H](C)NC(=O)[C@H](CCC(=O)O)NC(=O)[C@H](CC(=O)O)NC1=O)NC(=O)[C@H](C)NC(=O)[C@H](CC(=O)O)NC2=O` (stereo partly drawn) [I-490, Ac-PL3-Asp-Ala-B5-Asp-Glu-Ala-Ala-Phe-Gln-S8-Phe-BztA-2FurA-NH2] displayed a chromatographic logD of 2.21. Also, the “Solubility” value in “Solubility in PBS” stood at 50 µM (≈ 92.5 µg/mL). The IC50 in series [1] (setting [2]) came out at 88 nM.
